*1 amine or outer side, *2 acyl side, *3 side chain or, on linkers, in order; H or OH if unused. Where a SMILES comes first, the peptide text is derived from it. Bridges are numbered along the chain shown (N, C = ends). [ ]: non-standard residue; d: D form. The star is where a group is joined. X10 = O=C([C@@H](N[*:1])[C@H](O)CCc1ccccc1)[*:2]; Propargyl(OCH2CH2)4CO = C#CCOCCOCCOCCOCCC(=O)*; X11 = CCCCCCCC[C@@H](O)[C@H](N[*:1])C(=O)[*:2]; X1 = CCCCCC[C@@H](O)[C@H](N[*:1])C(=O)[*:2]; X3 = CCCCC[C@@H](O)[C@H](N[*:1])C(=O)[*:2]; Nle = CCCC[C@H](N)C(=O)O; Dab = NCC[C@H](N)C(=O)O; azaGly = NNC(=O)O

In the first test the test system is LPS from E. coli O111:B4. Briefly: LPS binding/neutralization by Limulus Amebocyte Lysate (LAL) assay. The conditions noted are these: LPS 1-10,000 ng/mL, test article 0.25-10 μM; sum of AUCs relative to maximal AUC (Table 14). The format is biochemical. On the procedure:
The LAL assay (Charles River) was used to determine the binding affinity of test articles to LPS.
For the assay, 25 μL purified LPS from E. coli O111:[…] (Sigma) at doses ranging from 1-10,000 ng/mL were incubated with 25 μL of test article at concentrations ranging from […]. After 5 min incubation at 37° C., 50 μL of LAL reagent, which reacts with lipid A portion from LPS, was added to corresponding wells. After 15 min, absorbance at 405 nm was read on EnSpire plate reader (Perkin Elmer). The % LPS neutralization is calculated relative to a PBS control (background) and LPS control at each concentration (positive control).
LPS neutralization=(1−(absorbance test article−PBS with LAL reagent)/(absorbance no test article−PBS with LAL reagent))×100
To obtain a single value of LPS neutralization for each test article, the area under the curve (AUC) for dose-response of test articles from […] for each LPS concentration was calculated using Prism 7 software. The % LPS neutralization is the sum of the AUCs for each LPS concentration determined relative to the maximal AUC achievable×100.
For the assay, 25 μL purified LPS from E. coli O111:B4 (Sigma) at doses ranging from 1-10,000 ng/mL were incubated with 25 μL of test article at concentrations ranging from 0.25-10 μM. After 5 min incubation at 37° C., 50 μL of LAL reagent, which reacts with lipid A portion from LPS, was added to corresponding wells. After 15 min, absorbance at 405 nm was read on EnSpire plate reader (Perkin Elmer). The % LPS neutralization is calculated relative to a PBS control (background) and LPS control at each concentration (positive control).
With `C#CCOCCOCCOCCOCCC(=O)N[C@@H](CCN)C(=O)N[C@H](C(=O)N[C@@H](CCN)C(=O)N[C@H]1CCNC(=O)[C@H]([C@@H](C)O)NC(=O)[C@H](CCN)NC(=O)[C@H](CCN)NC(=O)[C@H](CC(C)C)NC(=O)[C@@H](Cc2ccccc2)NC(=O)[C@H](CCN)NC1=O)[C@H](O)CCCCCCCC` [Int-84] ({Propargyl(OCH2CH2)4CO}-[Dab][X11][Dab][Dab][Dab][dF]L[Dab][Dab]T; lactam 4-C), the “% LPS neutralization of TM” value turned out to be 53.7%.
On the same count and under the same terms, to `C#CCOCCOCCOCCOCCC(=O)N[C@@H](CCCC)C(=O)N[C@@H](CCN)C(=O)N[C@H](C(=O)N[C@@H](CCN)C(=O)N[C@H]1CCNC(=O)[C@H]([C@@H](C)O)NC(=O)[C@H](CCN)NC(=O)[C@H](CCN)NC(=O)[C@H](CC(C)C)NC(=O)[C@@H](Cc2ccccc2)NC(=O)[C@H](CCN)NC1=O)[C@H](O)CCCCC` [Int-94] ({Propargyl(OCH2CH2)4CO}-[Nle][Dab][X3][Dab][Dab][Dab][dF]L[Dab][Dab]T; lactam 5-C) belongs 79.3%.
With `C#CCOCCOCCOCCOCCC(=O)N[C@@H](CCCC)C(=O)N[C@@H](CCN)C(=O)N[C@H](C(=O)N[C@@H](CCN)C(=O)N[C@H]1CCNC(=O)[C@H]([C@@H](C)O)NC(=O)[C@H](CCN)NC(=O)[C@H](CCN)NC(=O)[C@H](CC(C)C)NC(=O)[C@@H](Cc2ccccc2)NC(=O)[C@H](CCN)NC1=O)[C@H](O)CCCCCC` [Int-80] ({Propargyl(OCH2CH2)4CO}-[Nle][Dab][X1][Dab][Dab][Dab][dF]L[Dab][Dab]T; lactam 5-C), the “% LPS neutralization of TM” value was found to be 55.7%.
For the compound `C#CCOCCOCCOCCOCCC(=O)N[C@@H](CCCC)C(=O)N[C@@H](CCN)C(=O)N[C@H](C(=O)NNC(=O)N[C@H]1CCNC(=O)[C@H]([C@@H](C)O)NC(=O)[C@H](CCN)NC(=O)[C@H](CCN)NC(=O)[C@H](CC(C)C)NC(=O)[C@@H](Cc2ccccc2)NC(=O)[C@H](CCN)NC1=O)[C@H](O)CCCCC` [Int-100] ({Propargyl(OCH2CH2)4CO}-[Nle][Dab][X3][azaGly][Dab][Dab][dF]L[Dab][Dab]T; lactam 5-C), the “% LPS neutralization of TM” value was found to be 38.9%.
On to `C#CCOCCOCCOCCOCCC(=O)N[C@@H](CCN)C(=O)N[C@H](C(=O)N[C@@H](CCN)C(=O)N[C@H]1CCNC(=O)[C@H]([C@@H](C)O)NC(=O)[C@H](CCN)NC(=O)[C@H](CCN)NC(=O)[C@H](CC(C)C)NC(=O)[C@@H](Cc2ccccc2)NC(=O)[C@H](CCN)NC1=O)[C@H](O)CCc1ccccc1` [Int-83] ({Propargyl(OCH2CH2)4CO}-[Dab][X10][Dab][Dab][Dab][dF]L[Dab][Dab]T; lactam 4-C), for which the “% LPS neutralization of TM” value was 30.9%.

The same test, now with this note: LPS 1-10,000 ng/mL, test article 0.25-10 μM; sum of AUCs relative to maximal AUC (Table 15).
As to colistin sulfate, the “% LPS neutralization” value was determined as 9.21%.
